Here are results for 9 molecules from US20230139171A1 (SITA Information Networking Computing UK Limited, priority 2019, published 2023).

Format in all cases: cell-based
For one experiment, the target named is T1, human TLR7 (Homo sapiens, UniProt Q9NYK1).
T1 construct: host or cells: HEK-Blue cells
T1 sequence (Q9NYK1 27-1049): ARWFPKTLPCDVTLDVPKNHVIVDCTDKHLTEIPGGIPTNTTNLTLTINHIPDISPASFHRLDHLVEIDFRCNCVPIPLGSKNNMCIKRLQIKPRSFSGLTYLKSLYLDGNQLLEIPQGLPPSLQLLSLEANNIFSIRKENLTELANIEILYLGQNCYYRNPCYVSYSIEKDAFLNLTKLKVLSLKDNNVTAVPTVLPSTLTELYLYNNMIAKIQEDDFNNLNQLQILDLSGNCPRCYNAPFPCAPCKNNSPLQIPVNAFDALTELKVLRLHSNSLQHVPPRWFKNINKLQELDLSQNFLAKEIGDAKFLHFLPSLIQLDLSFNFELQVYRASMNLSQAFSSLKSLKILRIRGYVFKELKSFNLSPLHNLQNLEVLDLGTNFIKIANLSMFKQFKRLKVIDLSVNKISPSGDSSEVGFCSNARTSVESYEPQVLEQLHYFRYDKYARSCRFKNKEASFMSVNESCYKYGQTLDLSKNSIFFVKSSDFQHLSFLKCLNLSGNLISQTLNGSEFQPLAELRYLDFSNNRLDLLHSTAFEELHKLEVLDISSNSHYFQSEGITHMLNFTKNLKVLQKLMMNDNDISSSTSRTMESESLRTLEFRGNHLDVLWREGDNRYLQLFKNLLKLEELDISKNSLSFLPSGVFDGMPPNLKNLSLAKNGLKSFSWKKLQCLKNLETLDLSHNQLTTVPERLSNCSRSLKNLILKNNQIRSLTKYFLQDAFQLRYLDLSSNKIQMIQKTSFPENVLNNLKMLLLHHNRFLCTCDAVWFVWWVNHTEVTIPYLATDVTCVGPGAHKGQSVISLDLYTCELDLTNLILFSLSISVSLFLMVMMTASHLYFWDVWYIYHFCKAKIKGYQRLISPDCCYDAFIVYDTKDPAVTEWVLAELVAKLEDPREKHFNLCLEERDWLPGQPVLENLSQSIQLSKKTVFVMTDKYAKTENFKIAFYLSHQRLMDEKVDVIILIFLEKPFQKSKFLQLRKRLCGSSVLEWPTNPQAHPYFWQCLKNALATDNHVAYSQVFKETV
The experiment is described as follows: TLR7 inhibition reporter assay (HEK-Blue cells, SEAP reporter, gardiquimod stimulation). The following applies: HEK-Blue cells overexpressing human TLR7, SEAP reporter, gardiquimod 7.5 μM; read-out: TLR7 IC50. The method in brief:
(§1)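 Compound treatment: 30 min, RT, 0.05 nM–50 μM final. Agonist: TLR7 gardiquimod 7.5 μM; TLR8 R848 15.9 μM; TLR9 ODN2006 5 nM. Incubation 22 h, 37 °C, 5% CO2. Readout SEAP, HEK-Blue Detection.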

For another experiment, the target named is T2, human TLR8 (Homo sapiens, UniProt Q9NR97).
T2 construct: host or cells: HEK-Blue cells
T2 sequence (Q9NR97 27-1041): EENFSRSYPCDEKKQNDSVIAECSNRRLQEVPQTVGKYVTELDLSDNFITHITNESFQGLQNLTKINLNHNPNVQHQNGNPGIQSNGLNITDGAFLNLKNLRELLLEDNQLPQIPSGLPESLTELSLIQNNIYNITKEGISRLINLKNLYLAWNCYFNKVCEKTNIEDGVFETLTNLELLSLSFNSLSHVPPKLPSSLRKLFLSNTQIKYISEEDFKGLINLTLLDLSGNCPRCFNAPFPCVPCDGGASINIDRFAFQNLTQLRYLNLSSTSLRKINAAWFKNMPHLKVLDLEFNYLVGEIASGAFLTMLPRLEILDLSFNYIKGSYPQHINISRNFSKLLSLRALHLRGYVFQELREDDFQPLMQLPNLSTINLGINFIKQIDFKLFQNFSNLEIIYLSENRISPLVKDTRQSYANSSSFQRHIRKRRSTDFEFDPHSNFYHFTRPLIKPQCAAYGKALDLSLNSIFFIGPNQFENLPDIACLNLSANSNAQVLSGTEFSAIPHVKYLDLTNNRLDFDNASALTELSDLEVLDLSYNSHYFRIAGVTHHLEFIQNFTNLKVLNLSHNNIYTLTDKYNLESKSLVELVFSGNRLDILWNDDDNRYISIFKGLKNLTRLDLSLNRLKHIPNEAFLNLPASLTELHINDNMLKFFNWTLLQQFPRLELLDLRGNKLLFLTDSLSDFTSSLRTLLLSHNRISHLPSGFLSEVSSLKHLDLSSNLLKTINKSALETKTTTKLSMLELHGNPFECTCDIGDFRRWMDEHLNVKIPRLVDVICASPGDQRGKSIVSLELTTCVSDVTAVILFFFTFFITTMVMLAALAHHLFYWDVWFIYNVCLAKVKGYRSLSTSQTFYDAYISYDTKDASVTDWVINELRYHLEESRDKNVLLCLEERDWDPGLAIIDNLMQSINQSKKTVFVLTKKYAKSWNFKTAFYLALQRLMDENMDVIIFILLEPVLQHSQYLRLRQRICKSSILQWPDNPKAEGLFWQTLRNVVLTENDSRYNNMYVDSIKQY
The experiment is described as follows: TLR8 inhibition reporter assay (HEK-Blue cells, SEAP reporter, R848 stimulation). The following applies: HEK-Blue cells overexpressing human TLR8, SEAP reporter, R848 15.9 μM; read-out: TLR8 IC50. The method in brief: as §1

In the next experiment the target is T3, human TLR9 (Homo sapiens, UniProt Q9NR96).
T3 construct: host or cells: HEK-Blue cells
T3 sequence (Q9NR96 26-1032): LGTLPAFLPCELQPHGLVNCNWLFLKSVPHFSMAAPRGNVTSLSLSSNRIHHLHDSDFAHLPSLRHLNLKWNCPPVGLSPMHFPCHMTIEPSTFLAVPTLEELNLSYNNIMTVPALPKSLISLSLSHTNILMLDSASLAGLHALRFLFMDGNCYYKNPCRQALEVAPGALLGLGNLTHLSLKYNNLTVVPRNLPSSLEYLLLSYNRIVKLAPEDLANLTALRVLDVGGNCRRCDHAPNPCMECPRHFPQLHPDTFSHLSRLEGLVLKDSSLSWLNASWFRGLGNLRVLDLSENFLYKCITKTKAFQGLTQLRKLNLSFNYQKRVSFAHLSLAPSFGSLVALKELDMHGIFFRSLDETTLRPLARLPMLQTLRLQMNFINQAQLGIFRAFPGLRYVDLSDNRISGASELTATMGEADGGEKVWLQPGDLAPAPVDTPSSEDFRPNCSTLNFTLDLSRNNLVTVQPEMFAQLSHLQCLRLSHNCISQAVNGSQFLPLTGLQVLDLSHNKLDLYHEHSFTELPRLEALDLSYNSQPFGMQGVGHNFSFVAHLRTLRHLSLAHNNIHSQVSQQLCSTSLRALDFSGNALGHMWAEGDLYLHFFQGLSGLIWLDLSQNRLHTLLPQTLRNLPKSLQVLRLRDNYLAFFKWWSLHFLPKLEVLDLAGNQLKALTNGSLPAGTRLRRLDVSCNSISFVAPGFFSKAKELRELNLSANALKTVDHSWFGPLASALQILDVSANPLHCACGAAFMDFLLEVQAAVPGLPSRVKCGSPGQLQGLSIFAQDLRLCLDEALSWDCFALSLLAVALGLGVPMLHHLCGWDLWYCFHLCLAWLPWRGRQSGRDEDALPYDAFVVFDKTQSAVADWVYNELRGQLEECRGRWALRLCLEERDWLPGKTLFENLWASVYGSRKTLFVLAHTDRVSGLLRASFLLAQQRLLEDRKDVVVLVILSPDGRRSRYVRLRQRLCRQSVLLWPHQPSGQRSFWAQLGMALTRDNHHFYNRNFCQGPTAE
The experiment is described as follows: TLR9 inhibition reporter assay (HEK-Blue cells, SEAP reporter, ODN2006 stimulation). Particulars: HEK-Blue cells overexpressing human TLR9, SEAP reporter, ODN2006 5 nM. Here is the method: TLR7/8/9 Inhibition Reporter Assays
HEK-Blue™-cells (Invivogen) overexpressing human TLR7, TLR8 or TLR9 receptors were used for screening inhibitors of these receptors using an inducible SEAP (secreted embryonic alkaline phosphatase) reporter gene under the control of the IFN-β minimal promoter fused to five NF-κB and AP-1-binding sites. Briefly, cells are seeded into Greiner 384 well plates (15000 cells per well for TLR7, 20,000 for TLR8 and 25,000 for TLR9) and then treated with test compounds in DMSO to yield a final dose response concentration range of 0.05 nM-50 μM. After a 30 minute compound pre-treatment at room temperature, the cells are then stimulated with a TLR7 ligand (gardiquimod at a final concentration of 7.5 μM), TLR8 ligand (R848 at a final concentration of 15.9 μM) or TLR9 ligand (ODN2006 at a final concentration of 5 nM) to activate NF-κB and AP-1 which induce the production of SEAP. After a 22 hour incubation at 37° C., 5% CO2, SEAP levels are determined with the addition of HEK-Blue™ Detection reagent (Invivogen), a cell culture medium that allows for detection of SEAP, according to manufacturer's specifications. The percent inhibition is determined as the % reduction in the HEK-Blue signal present in wells treated with agonist plus DMSO alone compared to wells treated with a known inhibitor.

For the molecule `COc1cc(-c2[nH]c3cc(C4CCNCC4)sc3c2C(C)C)cn2ncnc12` [Example 413, 6-isopropyl-5-(8-methoxy-[1,2,4]triazolo[1,5-a]pyridin-6-yl)-2-(piperidin-4-yl)-4H-thieno[3,2-b]pyrrole], the IC50 on human TLR7 came out at 5.3 nM; at human TLR8, 9.3 nM; at human TLR9, 3.1 µM.

`Cc1c(-c2[nH]c3sc(N4CCN(C5CCN(C(C)C)CC5)C[C@H]4C)nc3c2C(C)C)cn2ncnc2c1C` [Example 324]: the 50% inhibitory concentration (IC50) on human TLR7 came out at 6.96 nM; on human TLR8, 2.26 nM; at human TLR9, 6.24 µM.

For `Cc1cc(-c2[nH]c3sc(C4CCN(C5CCOCC5)CC4)nc3c2C(C)C)cn2ncnc12` [Example 22, 6-isopropyl-5-(8-methyl-[1,2,4]triazolo[1,5-a]pyridin-6-yl)-2-(1-(tetrahydro-2H-pyran-4-yl)piperidin-4-yl)-4H-pyrrolo[3,2-d]thiazole], the IC50 was 1.23 nM on human TLR7, 0.9 nM at human TLR8 and 4.85 µM against human TLR9.

Regarding `Cc1c(-c2[nH]c3sc(N4C[C@@H](C)N(CCS(C)(=O)=O)C[C@@H]4C)nc3c2C(C)C)cn2ncnc2c1C` [Example 337, 2-((2S,5R)-2,5-dimethyl-4-(2-(methylsulfonyl)ethyl)piperazin-1-yl)-5-(7,8-dimethyl-[1,2,4]triazolo[1,5-a]pyridin-6-yl)-6-isopropyl-4H-pyrrolo[3,2-d]thiazole], the values for the half-inhibitory concentration (IC50) at human TLR7, at human TLR8 and against human TLR9 were 8.27 nM, 7.61 nM and 42.4 µM, respectively.

Turning to `Cc1c(-c2[nH]c3sc(N4C[C@@H](C)N(CC(N)=O)C[C@@H]4C)nc3c2C(C)C)cn2ncnc2c1C` [Example 338, 2-((2R,5S)-4-(5-(7,8-dimethyl-[1,2,4]triazolo[1,5-a]pyridin-6-yl)-6-isopropyl-4H-pyrrolo[3,2-d]thiazol-2-yl)-2,5-dimethylpiperazin-1-yl)acetamide], the figures for the 50% inhibitory concentration (IC50) on human TLR7, on human TLR8 and against human TLR9 were 10.1 nM, 31.1 nM and 45.6 µM, respectively.

Regarding `Cc1c(-c2[nH]c3sc(N4CCC(NC5(C)COC5)CC4)nc3c2C(C)C)cn2ncnc2c1C` [Example 290, 1-(5-(7,8-dimethyl-[1,2,4]triazolo[1,5-a]pyridin-6-yl)-6-isopropyl-4H-pyrrolo[3,2-d]thiazol-2-yl)-N-(3-methyloxetan-3-yl)piperidin-4-amine], the IC50 turned out to be 8.56 nM at human TLR7, 1.09 nM at human TLR8 and 22.1 µM against human TLR9.

In the case of `Cc1c(-c2[nH]c3sc(C4CCC(N5CC(O)(C(F)(F)F)C5)CC4)nc3c2C(C)C)cn(C)c(=O)c1C` (single isomer, unassigned) [Example 268, 5-(2-(4-(3-hydroxy-3-(trifluoromethyl)azetidin-1-yl)cyclohexyl)-6-isopropyl-4H-pyrrolo[3,2-d]thiazol-5-yl)-1,3,4-trimethylpyridin-2(1H)-one], the half-inhibitory concentration (IC50) at human TLR7 is 41.1 nM; at human TLR8, 65.1 nM; against human TLR9, more than 50 µM.

On to `Cc1cc(-c2[nH]c3sc(C4CCC(NC56CC(C5)C6)CC4)nc3c2C(C)C)cn2ncnc12` (single isomer, unassigned) [Example 138, N-(4-(6-isopropyl-5-(8-methyl-[1,2,4]triazolo[1,5-a]pyridin-6-yl)-4H-pyrrolo[3,2-d]thiazol-2-yl)cyclohexyl)bicyclo[1.1.1]pentan-1-amine], for which the IC50 on human TLR7 worked out at 0.93 nM; on human TLR8, 3.96 nM; against human TLR9, 14.8 µM.

As for `Cc1c(-c2[nH]c3sc(N4C[C@@H](C)N(C(=O)CN(C)C)C[C@@H]4C)nc3c2C(C)C)cn2ncnc2c1C` [Example 341, 1-((2R,5S)-4-(5-(7,8-dimethyl-[1,2,4]triazolo[1,5-a]pyridin-6-yl)-6-isopropyl-4H-pyrrolo[3,2-d]thiazol-2-yl)-2,5-dimethylpiperazin-1-yl)-2-(dimethylamino) ethan-1-one], the IC50 on human TLR7 was found to be 7.86 nM; on human TLR8 it was 9 nM; against human TLR9 it was 16.5 µM.
